According to the supplement of paper PMC11208160:

Assay: recombinant UMI read abundance after kanamycin selection (control-corrected) (log10(CPM+1)); higher = more efficient recombination; extreme values may be limits of the assay; sequences stand for … in AGTGCAGAGAAAATCGGCCAGTTTTCTCTGCCTGCAGTCCGCATGCCGTGGGACCCCTTGGGTTCTAACCTGTTGCCTAGATTTATGCAGCGGACTGCCTTTCTCCCAAAGTGATAAACCGG…AGGTTGGTTTCACT; site = the 11-nt donor
Procedure, shortened: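 After plating on IPTG (0.07 mM) plus kanamycin, or unselected, in two replicates, recombinant UMIs were PCR-amplified across the donor–target junction and sequenced. The cells were Escherichia coli co-electroporated with a UMI-tagged donor and donor-binding-loop pair library and a target plasmid with a fixed target and T7-inducible IS621 bridge recombinase. Values are log10(CPM+1), with CPM averaged over replicates and scaled by control-derived factors.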
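Note: IS621 bridge recombinase in Escherichia coli cells against a fixed T5 target plasmid.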

| Sequence | recombinant UMI read abundance (log10) |
| --- | --- |
| TACCTCTCATGGACCGGTTTTCCCGGTAATCCGTATTTGAC (site TACCTCTCTGT) | 0.216 |
| TACCTGACATGGACCGGTTTTCCCGGTAATCCGTATTTGCT (site TACATGACTAG) | 0 |
| TACCTGACATGGACCGGTTTTCCCGGTAATCCGTATTTGCT (site TACCTGACTAG) | 0.461 |
| TACCTGACATGGACCGGTTTTCCCGGTAATCCGTATTTGCT (site TACGTGACTAG) | 0 |
| TACCTGACATGGACCGGTTTTCCCGGTAATCCGTATTTGCT (site TACTTGACTAG) | 0 |
| TACCTTCCATGGACCGGTTTTCCCGGTAATCCGTATTTGGC (site TACCTTCCTGC) | 0 |
| TACGATCCATGGACCGGTTTTCCCGGTAATCCGTATTTGCT (site TACGATCCTAG) | 1.96 |
| TACGGAGCATGGACCGGTTTTCCCGGTAATCCGTATTTGCC (site AGTCTTACTAA) | 0 |
| TACGGCCCATGGACCGGTTTTCCCGGTAATCCGTATTTGTT (site AACGGCCCTAA) | 0.0182 |
| TACGGCCCATGGACCGGTTTTCCCGGTAATCCGTATTTGTT (site CACGGCCCTAA) | 0.00844 |
| TACGGCCCATGGACCGGTTTTCCCGGTAATCCGTATTTGTT (site GACGGCCCTAA) | 0.00736 |
| TACGGCCCATGGACCGGTTTTCCCGGTAATCCGTATTTGTT (site TACGGCCCTAA) | 0.00191 |
| TACGGCGCATGGACCGGTTTTCCCGGTAATCCGTATTTGCC (site TACGGCGCTGG) | 2.01 |
| TACGTGACATGGACCGGTTTTCCCGGTAATCCGTATTTGAC (site TACGTGACTGT) | 1.74 |
| TACTCCTCATGGACCGGTTTTCCCGGTAATCCGTATTTGGG (site TACTCCTCTCC) | 0.0269 |
| TACTCTCCATGGACCGGTTTTCCCGGTAATCCGTATTTGTG (site TACTCTCCTCA) | 0.011 |
| TACTGCACATGGACCGGTTTTCCCGGTAATCCGTATTTGGG (site TACTGCACTCC) | 0.0129 |
| TACTTAACATGGACCGGTTTTCCCGGTAATCCGTATTTGCT (site TACTTAACTAG) | 0.345 |
| TACTTAACATGGACCGGTTTTCCCGGTAATCCGTATTTGCT (site TACTTCACTAG) | 0.00655 |
| TACTTAACATGGACCGGTTTTCCCGGTAATCCGTATTTGCT (site TACTTGACTAG) | 0.00699 |
| TACTTAACATGGACCGGTTTTCCCGGTAATCCGTATTTGCT (site TACTTTACTAG) | 0 |
| TACTTCACATGGACCGGTTTTCCCGGTAATCCGTATTTGCT (site TACTTAACTAG) | 0.0118 |
| TACTTCACATGGACCGGTTTTCCCGGTAATCCGTATTTGCT (site TACTTCACTAG) | 1.9 |
| TACTTCACATGGACCGGTTTTCCCGGTAATCCGTATTTGCT (site TACTTGACTAG) | 0.0117 |
| TACTTCACATGGACCGGTTTTCCCGGTAATCCGTATTTGCT (site TACTTTACTAG) | 0 |

| Sequence | recombinant UMI read abundance (log10) |
| --- | --- |
| TACTTGACATGGACCGGTTTTCCCGGTAATCCGTATTTGGT (site TACTTGACTAA) | 0.109 |
| TACTTGACATGGACCGGTTTTCCCGGTAATCCGTATTTGGT (site TACTTGACTAC) | 0.209 |
| TACTTGACATGGACCGGTTTTCCCGGTAATCCGTATTTGGT (site TACTTGACTAG) | 0 |
| TACTTGACATGGACCGGTTTTCCCGGTAATCCGTATTTGGT (site TACTTGACTAT) | 0.179 |
| TAGAAAACATGGACCGGTTTTCCCGGTAATCCGTATTTGGA (site TAGAAAACTTC) | 0.76 |
| TAGAACACATGGACCGGTTTTCCCGGTAATCCGTATTTGCA (site TAGAAAACTTG) | 0 |
| TAGAACACATGGACCGGTTTTCCCGGTAATCCGTATTTGCA (site TAGAACACTTG) | 2.41 |
| TAGAACACATGGACCGGTTTTCCCGGTAATCCGTATTTGCA (site TAGAAGACTTG) | 0.271 |
| TAGAACACATGGACCGGTTTTCCCGGTAATCCGTATTTGCA (site TAGAATACTTG) | 1.87 |
| TAGAATACATGGACCGGTTTTCCCGGTAATCCGTATTTGAA (site TAGAATACTTA) | 0.0126 |
| TAGAATACATGGACCGGTTTTCCCGGTAATCCGTATTTGAA (site TAGAATACTTC) | 0.0116 |
| TAGAATACATGGACCGGTTTTCCCGGTAATCCGTATTTGAA (site TAGAATACTTG) | 0 |
| TAGAATACATGGACCGGTTTTCCCGGTAATCCGTATTTGAA (site TAGAATACTTT) | 0.686 |
| TAGAATACATGGACCGGTTTTCCCGGTAATCCGTATTTGCC (site TAGAATACTAG) | 0 |
| TAGAATACATGGACCGGTTTTCCCGGTAATCCGTATTTGCC (site TAGAATACTCG) | 0 |
| TAGAATACATGGACCGGTTTTCCCGGTAATCCGTATTTGCC (site TAGAATACTGG) | 0 |
| TAGAATACATGGACCGGTTTTCCCGGTAATCCGTATTTGCC (site TAGAATACTTG) | 0 |
| TAGAATACATGGACCGGTTTTCCCGGTAATCCGTATTTGCT (site TAGAATACTAG) | 1.3 |
| TAGAATACATGGACCGGTTTTCCCGGTAATCCGTATTTGCT (site TAGAATACTCG) | 0.00353 |
| TAGAATACATGGACCGGTTTTCCCGGTAATCCGTATTTGCT (site TAGAATACTGG) | 0 |
| TAGAATACATGGACCGGTTTTCCCGGTAATCCGTATTTGCT (site TAGAATACTTG) | 0.00456 |
| TAGAATCCATGGACCGGTTTTCCCGGTAATCCGTATTTGCA (site TAGAATACTTG) | 0 |
| TAGAATCCATGGACCGGTTTTCCCGGTAATCCGTATTTGCA (site TAGAATCCTTG) | 1.16 |
| TAGAATCCATGGACCGGTTTTCCCGGTAATCCGTATTTGCA (site TAGAATGCTTG) | 0 |
| TAGAATCCATGGACCGGTTTTCCCGGTAATCCGTATTTGCA (site TAGAATTCTTG) | 0 |

| Sequence | recombinant UMI read abundance (log10) |
| --- | --- |
| TAGAATGCATGGACCGGTTTTCCCGGTAATCCGTATTTGCA (site TAGAATACTTG) | 0.258 |
| TAGAATGCATGGACCGGTTTTCCCGGTAATCCGTATTTGCA (site TAGAATCCTTG) | 0.762 |
| TAGAATGCATGGACCGGTTTTCCCGGTAATCCGTATTTGCA (site TAGAATGCTTG) | 2.71 |
| TAGAATGCATGGACCGGTTTTCCCGGTAATCCGTATTTGCA (site TAGAATTCTTG) | 0.905 |
| TAGAATTCATGGACCGGTTTTCCCGGTAATCCGTATTTGCA (site TAGAATACTTG) | 0.907 |
| TAGAATTCATGGACCGGTTTTCCCGGTAATCCGTATTTGCA (site TAGAATCCTTG) | 0 |
| TAGAATTCATGGACCGGTTTTCCCGGTAATCCGTATTTGCA (site TAGAATGCTTG) | 0 |
| TAGAATTCATGGACCGGTTTTCCCGGTAATCCGTATTTGCA (site TAGAATTCTTG) | 1.53 |
| TAGACGCCATGGACCGGTTTTCCCGGTAATCCGTATTTGTG (site TAGACGCCTCA) | 0.00987 |
| TAGCAGACATGGACCGGTTTTCCCGGTAATCCGTATTTGGT (site TAGCAGACTAC) | 0.868 |
| TAGCAGGCATGGACCGGTTTTCCCGGTAATCCGTATTTGCT (site TAGCAGGCTAG) | 1.19 |
| TAGCCTACATGGACCGGTTTTCCCGGTAATCCGTATTTGGT (site TAGCCTACTAC) | 0.00532 |
| TAGCCTACATGGACCGGTTTTCCCGGTAATCCGTATTTGGT (site TAGCCTCCTAC) | 0.0181 |
| TAGCCTACATGGACCGGTTTTCCCGGTAATCCGTATTTGGT (site TAGCCTGCTAC) | 0.0107 |
| TAGCCTACATGGACCGGTTTTCCCGGTAATCCGTATTTGGT (site TAGCCTTCTAC) | 0.0222 |
| TAGCCTTCATGGACCGGTTTTCCCGGTAATCCGTATTTGGC (site TAGCCTTCTAC) | 0.00487 |
| TAGCCTTCATGGACCGGTTTTCCCGGTAATCCGTATTTGGC (site TAGCCTTCTCC) | 0.0163 |
| TAGCCTTCATGGACCGGTTTTCCCGGTAATCCGTATTTGGC (site TAGCCTTCTGC) | 0 |
| TAGCCTTCATGGACCGGTTTTCCCGGTAATCCGTATTTGGC (site TAGCCTTCTTC) | 0.0129 |
| TAGCCTTCATGGACCGGTTTTCCCGGTAATCCGTATTTGTT (site TAGCCTTCTAA) | 1.08 |
| TAGCCTTCATGGACCGGTTTTCCCGGTAATCCGTATTTGTT (site TAGCCTTCTAC) | 0.0119 |
| TAGCCTTCATGGACCGGTTTTCCCGGTAATCCGTATTTGTT (site TAGCCTTCTAG) | 0.0127 |
| TAGCCTTCATGGACCGGTTTTCCCGGTAATCCGTATTTGTT (site TAGCCTTCTAT) | 0.00427 |
| TAGCGCGCATGGACCGGTTTTCCCGGTAATCCGTATTTGAC (site TAGCGCGCTGT) | 2.03 |
| TAGCGGTCATGGACCGGTTTTCCCGGTAATCCGTATTTGTT (site TAGCGGTCTAA) | 1.27 |
